Assay results taken from patent US20230381069A1, “TOPICAL COMPOSITIONS AND METHODS OF USING THEREOF” (OHIO STATE INNOVATION FOUNDATION, priority 2016, published 2023).

Assay: Photolysis of thin films in petroleum jelly on quartz plates under a UV photolysis lamp
Format: physicochemical
Description: A UV photolysis lamp having a light flux of 320 mW equipped with a cutoff filter at 270-280 nm was used to evaluate the performance and stability of the sunscreen compositions prepared herein. With 3 min of exposure to the UV lamp (same position as sample, after the filter), a clear damage was observed on human skin. Typically, under hot sun, this sunburn process takes 30 min to an hour. Accordingly, the photolysis lamp used for analysis is considerably more intense than natural sunlight.
FIGS. 4A and 4B compare the stability of avobenzone dispersed in petroleum jelly with avobenzone encapsulated in encapsulated in zeolite nanoparticles (10% zeolite, 1% AB) dispersed in petroleum jelly.
FIG. 7 is a plot showing the long-term stability of avobenzone/nanozeolite formulations. The absorption spectra of a thin film of avobenzone encapsulated in zeolite nanoparticles (10% zeolite, 1% AB) dispersed in petroleum jelly on quartz plates was obtained following 0, 3, 5, and 12 hours of irradiation using a UV photolysis lamp.

For `COc1ccc(C(=O)CC(=O)c2ccc(C(C)(C)C)cc2)cc1` [avobenzone], the “AB decomposition in the presence of 1% OMC (octinoxate)” value (petroleum jelly, photolysis for 4 hours, FIGS. 8A/8B) was “AB decomposition was observed after the first hour of photolysis” and the “degradation of avobenzone via UV spectroscopy (long-term stability)” value (thin film in petroleum jelly, 0, 3, 5 and 12 hours of irradiation, FIG. 7) was “complete degradation of the avobenzone was observed within four hours”.
